# Reference: article PMC9519446, “Discovery of an Orally Active Benzoxaborole Prodrug Effective in the Treatment of Chagas Disease in Non-human Primates” (Nature microbiology, 2022)
# Where “and” joins values, the source holds several entries; their conditions need not be identical. Equal entries are not always repeated.
# How the values were obtained:
# [1] = High dose 7-day toxicology study with exposure
# [2] = NHP health screening: hematology (CBC); assay type: in vivo, rhesus macaques (Macaca mulatta)
# Method: Under light-anesthesia/sedation, peripheral blood samples were collected from each animal prior to treatment and at 7 time points following. Blood analysis (CBC and serum chemistry assays) and physical exams to evaluate the health of the study animals were performed on each animal prior to the beginning of the study and also at three time points during the treatment protocol (see Supplementary data).
# [3] = Mean of treated female rhesus macaques, blood sample of 2018-03-26/27
# [4] = Treated rhesus macaques, individual animal, blood sample of 2018-03-26/27
# [5] = drug-treatment phase, returned to pre-study values by the final blood draw
# [6] = treated female macaques, mid-dosing bleed, Mean
structure (smiles),measurement,setting,value
Cc1c(C(=O)N[C@H](C(=O)OCC2CCOCC2)C(C)C)ccc2c1B(O)OC2 [AN15368],dose proportionality of exposure,[1]; 7-day toxicology studies / rats,good dose proportional exposure
same,NOAEL dose translated by allometric scaling,[1]; humans,19.4 mg/kg
same,NOAEL dose translated by allometric scaling,[1]; monkeys,60.5 mg/kg
same,AUC(0-t),"[1]; rat, in vivo, 120 mg/kg/day, Total plasma exposure (AUC0-24 h), rats, 120 mg/kg/day (NOAEL dose)",30 µg·h/mL
same,AUC,"[1]; rat, in vivo, 600 mg/kg",256 µg·h/mL
same,NOAEL at 7 days,"[1]; rat, in vivo, oral",120 mg/kg
same,microscopic findings,[1]; rats,"observed microscopically in liver (dose dependent), kidney"
same,effects on hematology and clinical chemistry,"[1]; rats, 120 mg/kg/day or lower",none
same,effects on hematology and clinical chemistry,"[1]; rats, 150 mg/kg",modest effects
same,drug accumulation,"[1]; rats, between the first and seventh days of the study",no evidence of drug accumulation
same,"Baso, Mean",[2]; [3],0.01 10^3/µL
same,"Eos, Mean",[2]; [3],0.09056 10^3/µL
same,"Hct, Mean",[2]; [3],42.7278%
same,"Hgb, Mean",[2]; [3],13.2278 G/Dl
same,"Lymp, Mean",[2]; [3],2.112 10^3/µL
same,"Mch, Mean",[2]; [3],22.4444 Pgs
same,"Mchc, Mean",[2]; [3],30.9611 G/Dl
same,"Mcv, Mean",[2]; [3],72.4667 fL
same,"Mono, Mean",[2]; [3],0.2806 10^3/µL
same,"Mpv, Mean",[2]; [3],7.333 fL
same,"Neut, Mean",[2]; [3],3.369 10^3/µL
same,"Plt, Mean",[2]; [3],334.722 10^3/µL
same,"Rbc, Mean",[2]; [3],5.902 10^6/µL
same,"Rdw, Mean",[2]; [3],12.2111%
same,"Wbc, Mean",[2]; [3],5.862 10^3/µL
same,Baso,[2]; [4],0.01 10^3/µL and 0 10^3/µL
same,Eos,[2]; [4],0.24 10^3/µL and 0.09 10^3/µL and 0.02 10^3/µL and 0.17 10^3/µL and 0.16 10^3/µL
same,Hct,[2]; [4],46.5% and 43.6% and 38.8% and 40.8% and 41.6%
same,Hgb,[2]; [4],14.6 G/Dl and 13 G/Dl and 11.7 G/Dl and 13.1 G/Dl
same,Lymp,[2]; [4],2.42 10^3/µL and 2.63 10^3/µL and 1.31 10^3/µL and 3.46 10^3/µL and 2.68 10^3/µL
same,Mch,[2]; [4],21.8 Pgs and 21.4 Pgs and 21.5 Pgs and 22.2 Pgs and 22.8 Pgs
same,Mchc,[2]; [4],31.4 G/Dl and 29.8 G/Dl and 30.2 G/Dl and 32.1 G/Dl and 31.5 G/Dl
same,Mcv,[2]; [4],69.6 fL and 71.6 fL and 71.5 fL and 69.4 fL and 72.5 fL
same,Mono,[2]; [4],0.38 10^3/µL and 0.28 10^3/µL and 0.1 10^3/µL and 0.31 10^3/µL
same,Mpv,[2]; [4],7.6 fL and 6.9 fL and 7.2 fL and 6.4 fL
same,Neut,[2]; [4],3.03 10^3/µL and 1.68 10^3/µL and 2.26 10^3/µL and 1.88 10^3/µL and 0.86 10^3/µL
same,Plt,[2]; [4],347 10^3/µL and 388 10^3/µL and 304 10^3/µL and 339 10^3/µL and 367 10^3/µL
same,Rbc,[2]; [4],6.68 10^6/µL and 6.09 10^6/µL and 5.43 10^6/µL and 5.88 10^6/µL and 5.74 10^6/µL
same,Rdw,[2]; [4],11.4% and 12.7% and 10.8% and 12.3% and 12.2%
same,Wbc,[2]; [4],6.07 10^3/µL and 4.69 10^3/µL and 3.69 10^3/µL and 5.83 10^3/µL and 3.99 10^3/µL
same,lymphocytes in the blood,[2]; [5],mildly elevated
same,monocytes in the blood,[2]; [5],mildly elevated
same,Baso,[2]; [6],0.01333 10^3/µL
same,Eos,[2]; [6],0.09889 10^3/µL
same,Hct,[2]; [6],41.4111%
same,Hgb,[2]; [6],13.2333 G/Dl
same,Lymp,[2]; [6],3.343 10^3/µL
same,Mch,[2]; [6],23.5333 Pgs
same,Mchc,[2]; [6],31.9611 G/Dl
same,Mcv,[2]; [6],73.75 fL
same,Mono,[2]; [6],0.2572 10^3/µL
same,Mpv,[2]; [6],7.506 fL
same,Neut,[2]; [6],2.007 10^3/µL
same,Plt,[2]; [6],319.5 10^3/µL
same,Rbc,[2]; [6],5.621 10^6/µL
same,Rdw,[2]; [6],12.4556%
same,Wbc,[2]; [6],5.718 10^3/µL
same,Baso,"[2]; treated female macaques, post-dosing bleed, Mean",0.01167 10^3/µL
